This passage reports IC50 results from US8674115B2, “CRTH2 modulators” (Ironwood Pharmaceuticals, Inc., priority 2009, dated 2014).

Structures are written as SMILES. Some results are limits rather than exact numbers.

In assay [1] the target is T1, CRTH2 (Homo sapiens, UniProt Q9Y5Y4).
T1 sequence (Q9Y5Y4 1-395): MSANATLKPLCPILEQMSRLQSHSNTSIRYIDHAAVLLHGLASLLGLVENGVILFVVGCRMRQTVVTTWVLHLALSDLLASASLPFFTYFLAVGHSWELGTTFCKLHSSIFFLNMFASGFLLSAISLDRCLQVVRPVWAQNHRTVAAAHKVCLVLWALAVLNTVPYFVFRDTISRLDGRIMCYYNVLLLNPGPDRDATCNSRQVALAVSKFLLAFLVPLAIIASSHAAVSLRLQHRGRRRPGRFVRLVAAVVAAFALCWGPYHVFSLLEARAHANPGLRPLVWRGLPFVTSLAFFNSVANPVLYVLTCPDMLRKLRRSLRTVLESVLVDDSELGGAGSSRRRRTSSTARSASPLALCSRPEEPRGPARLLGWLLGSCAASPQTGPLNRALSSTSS
As to the kind of experiment: DPBS CD11b antagonist assay (CD11b expression in eosinophils). The assay is classed as cell-based. The conditions noted are these: challenged with 10 nM 15R-Methyl-PGD2, read-out: CD11b Antag IC50(nM) [HuEos-DPBS-vs10nM15R]. The procedure:
DPBS CD11b Antagonist Assay.
The potential CRTH2 antagonist activity of certain compounds was tested using a CD11b expression assay using essentially the method described by Monneret et al. (J Pharmacol Exp Ther 304:349-55, 2003). Briefly, polymorphonuclear cells (0.5 ml; 10^6/ml cells) in PBS containing 0.9 mM CaCl2 and 0.5 mM MgCl2) were preincubated with various concentrations of test compounds at room temperature for 10 minutes before they were challenged with the agonist 15R-Methyl-PGD2 (10 nM). The incubations were terminated by the addition of ice-cold FACSFlow (BD Biosciences; Cat# 342003) and centrifugation (400 g for 5 minutes at 4° C.). The cells were then incubated for 30 minutes at 4° C. with a mixture of PE-labeled mouse anti-human VLA-4 (5 μl; BD Biosciences) and FITC-labeled mouse anti-human CD11b (10 μl; Beckman Coulter). The cells were then incubated with Optilyse C (0.25 ml; Beckman Coulter) for 15 minutes, centrifuged, and then fixed in PBS (0.4 ml; calcium and magnesium free) containing 1% formaldehyde. The distribution of fluorescence intensities among 60,000 cells was measured by flow cytometry. Eosinophils were gated out on the basis of their granularity (high side scatter) and labeling with VLA-4 (PE fluorescence). CD11b was then measured in the eosinophil region on the basis of fluorescence due to FITC. All data were corrected for the value obtained for the corresponding isotope control antibody.

The target in assay [2] is T1, CRTH2. Nature of the assay: Human whole blood CD11b antagonist assay (CD11b expression in eosinophils). Particulars: challenged with 10 nM 15R-Methyl-PGD2, read-out: CD11b Antag IC50(nM) [HuEos-HuWB-vs10nM15R]. Also noted: endogenous in cells; host or cells: eosinophils in human whole blood. The assay is classed as cell-based. The procedure: Human Whole Blood CD11B Antagonist Assay (Modified from Nicholson, et al. Pulmonary Pharmacology and Therapeutics: 20 (2007); 52-59).
The potential CRTH2 antagonist activity of certain compounds was tested in human whole blood using an assay that tests the ability of the compounds to block the CD11b expression in eosinophils by 15-R-methyl-PGD2. A CRTH2 antagonist should block CD11b expression by subsequently added 15-Methyl-PGD2. Human whole blood (200 μL) was incubated at 37° C. for 10 minutes in the presence of various concentrations of test compounds before being challenged with the agonist 15R-Methyl-PGD2 (10 nM). Reactions were terminated by the addition of ice-cold PBS+0.5% BSA+2 mMEDTA (1 mL) and centrifugation (300×g for 5 minutes at 4° C.) Cells were then incubated at 4° C. for 10 min in the presence of human IgG. Cells were then incubated for 30-45 min with a mixture of PE-Cy5-labeled mouse anti-human CD16 (10 ul; BD Biosciences) and FITC-labeled mouse anti-human CD11b (10 μL; Beckman Coulter.) After rinsing (1 mL ice-cold PBS+0.5% BSA+2 mMEDTA), red blood cells were lysed by the addition of 1 mL ice-cold H2O to the cell pellet for 30 sec-1 min immediately followed by the addition of 3.5% NaCl (300 μL.) Cells were then rinsed (2×-1 ml ice cold PBS+0.5% BSA+2 mMEDTA) and fixed in PBS containing 1% formaldehyde. The distribution of fluorescence intensities was measured by flow cytometry. Eosinophils were gated out on the basis of their granularity (high side scatter) and absence of CD-16. CD11b was then measured on this eosinophil population on the basis of fluorescence due to FITC.

Consider `CCOC(=O)Cn1c(C)c(C#N)c(Cc2ccccc2S(=O)(=O)N2CCCC2)c1C` [I-63, Ethyl 2-(3-cyano-2,5-dimethyl-4-(2-(pyrrolidin-1-ylsulfonyl)benzyl)-1H-pyrrol-1-yl)acetate], for which the IC50 on CRTH2 [1] and at CRTH2 [2] was more than 500 nM each time.

Consider `Cc1c(Cc2ccccc2S(=O)(=O)N2CCCC2)c(C(=O)c2ccccc2)c(C)n1CC(=O)O` [I-55, 2-(3-benzoyl-2,5-dimethyl-4-(2-(pyrrolidin-1-ylsulfonyl)benzyl)-1H-pyrrol-1-yl)acetic acid], for which the IC50 on CRTH2 [1] was less than 5 nM; at CRTH2 [2], 5 to 100 nM.

For `Cc1c(C#N)c(Cc2ccccc2S(=O)(=O)c2ccccc2)c(C)n1CC(=O)O` [I-23, 2-(3-cyano-2,5-dimethyl-4-(2-(phenylsulfonyl)benzyl)-1H-pyrrol-1-yl)acetic acid], the IC50 on CRTH2 [1] was less than 5 nM; on CRTH2 [2] it was 5 to 100 nM.

Regarding `CC(=O)c1c(Cc2ccccc2S(=O)(=O)c2ccccc2)c(C)n(CC(=O)O)c1C` [I-52, 2-(3-acetyl-2,5-dimethyl-4-(2-(phenylsulfonyl)benzyl)-1H-pyrrol-1-yl)acetic acid], the values for the IC50 on CRTH2 [1] and at CRTH2 [2] were less than 5 nM and 5 to 100 nM, respectively.
